Measurements: ChEMBL document CHEMBL1201862, “PubChem BioAssay data set” (2004)
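Test compounds were applied to cells in 96-well plates for 48 hours at 5 doses. Here, GI50 denotes the concentration required for 50% inhibition of growth.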 Calls of active or inactive are those of the source. Rule as the data show it: active = GI50 up to about 1.1 µM and inactive = higher.

Key:
Test in all cases: inhibition of tumour cell growth, NCI panel, 48 h
NCI/ADR-RES = test system: NCI/ADR-RES
UACC-62 = test system: UACC-62
SN12C = test system: SN12C
SK-MEL-2 = test system: SK-MEL-2
HCT-15 = test system: HCT-15
MDA-MB-231 = test system: MDA-MB-231
EKVX = test system: EKVX
RPMI-8226 = test system: RPMI-8226
RXF 393 = test system: RXF 393
K562 = test system: K562
SR = test system: SR
SF-268 = test system: SF-268
SK-MEL-5 = test system: SK-MEL-5
T47D = test system: T47D
Hs-578T = test system: Hs-578T
IGROV-1 = test system: IGROV-1
DU-145 = test system: DU-145
LOX IMVI = test system: LOX IMVI
NCI-H522 = test system: NCI-H522
Malme-3M = test system: Malme-3M

Structure (SMILES) | GI50 (NCI/ADR-RES) | GI50 (UACC-62) | GI50 (SN12C) | GI50 (SK-MEL-2) | GI50 (HCT-15) [µM] | GI50 (MDA-MB-231) | GI50 (EKVX) | GI50 (RPMI-8226) | GI50 (RXF 393) | GI50 (K562) | GI50 (SR) | GI50 (SF-268) | GI50 (SK-MEL-5) | GI50 (T47D) | GI50 (Hs-578T) | GI50 (IGROV-1) | GI50 (DU-145) | GI50 (LOX IMVI) | GI50 (NCI-H522) | GI50 (Malme-3M)
CN(C)CCCn1c(-c2ccc(Br)cc2)cs/c1=N\c1ccccc1 | 14.3 µM (inactive) | 13.7 µM (inactive) | 18.5 µM (inactive) | 15.7 µM (inactive) | 21.1 | 15.1 µM (inactive) | 10.8 µM (inactive) | 12.6 µM (inactive) | 12.9 µM (inactive) | 11.6 µM (inactive) | 14 µM (inactive) | 17.1 µM (inactive) | – | – | – | – | – | – | – | –
Cn1c(=O)n2n(c1=O)C(C)(C13CC4CC(CC(C4)C1)C3)C13CC4CC(CC1C4)CC23 (configuration not stated) | > 100 µM (inactive) | > 100 µM (inactive) | > 100 µM (inactive) | > 100 µM (inactive) | > 100 | > 100 µM (inactive) | > 100 µM (inactive) | > 100 µM (inactive) | – | 87.1 µM (inactive) | > 100 µM (inactive) | > 100 µM (inactive) | > 100 µM (inactive) | > 100 µM (inactive) | > 100 µM (inactive) | > 100 µM (inactive) | > 100 µM (inactive) | – | – | –
CCOC(=O)c1csc(NC(=O)CN2CCCC2)n1 | > 100 µM (inactive) | > 100 µM (inactive) | – | > 100 µM (inactive) | > 100 | > 100 µM (inactive) | > 100 µM (inactive) | > 100 µM (inactive) | > 100 µM (inactive) | > 100 µM (inactive) | > 100 µM (inactive) | > 100 µM (inactive) | > 100 µM (inactive) | > 100 µM (inactive) | > 100 µM (inactive) | > 100 µM (inactive) | > 100 µM (inactive) | > 100 µM (inactive) | – | –
Cc1nc(N(CCO)CCO)c2sc(=S)n(-c3ccccc3)c2n1 | – | > 100 µM (inactive) | – | > 100 µM (inactive) | – | – | – | > 100 µM (inactive) | – | > 100 µM (inactive) | > 100 µM (inactive) | > 100 µM (inactive) | > 100 µM (inactive) | – | – | > 100 µM (inactive) | – | – | > 100 µM (inactive) | > 100 µM (inactive)
CCOC(=O)c1csc(NC(=O)CCN2CCN(C)CC2)n1 | > 100 µM (inactive) | > 100 µM (inactive) | – | > 100 µM (inactive) | > 100 | > 100 µM (inactive) | – | 55.3 µM (inactive) | > 100 µM (inactive) | 69.8 µM (inactive) | 74.3 µM (inactive) | – | > 100 µM (inactive) | > 100 µM (inactive) | 64.6 µM (inactive) | – | > 100 µM (inactive) | > 100 µM (inactive) | – | –
Cc1ccc(S(=O)(=O)NCCCSCCN)cc1 | > 100 µM (inactive) | – | > 100 µM (inactive) | – | > 100 | > 100 µM (inactive) | – | – | > 100 µM (inactive) | > 100 µM (inactive) | > 100 µM (inactive) | > 100 µM (inactive) | 22 µM (inactive) | > 100 µM (inactive) | > 100 µM (inactive) | – | > 100 µM (inactive) | < 0.01 µM (active) | > 100 µM (inactive) | –
Cc1nc2ccccc2c(=O)n1CC(=O)O | > 100 µM (inactive) | > 100 µM (inactive) | > 100 µM (inactive) | > 100 µM (inactive) | > 100 | – | > 100 µM (inactive) | > 100 µM (inactive) | > 100 µM (inactive) | > 100 µM (inactive) | – | > 100 µM (inactive) | > 100 µM (inactive) | – | – | > 100 µM (inactive) | – | > 100 µM (inactive) | > 100 µM (inactive) | > 100 µM (inactive)
Nc1ccc2c(c1)C1=NNC(=O)CC1C2 (configuration not stated) | > 100 µM (inactive) | > 100 µM (inactive) | > 100 µM (inactive) | > 100 µM (inactive) | > 100 | – | > 100 µM (inactive) | > 40.4 µM (inactive) | > 100 µM (inactive) | > 100 µM (inactive) | – | > 100 µM (inactive) | > 100 µM (inactive) | – | – | > 100 µM (inactive) | – | > 100 µM (inactive) | > 100 µM (inactive) | > 100 µM (inactive)
Cc1nc2c(nc1Cl)nc(Oc1ccc(Cl)cc1)c1ccccc12 | – | 48.2 µM (inactive) | 43.6 µM (inactive) | > 100 µM (inactive) | > 100 | – | > 100 µM (inactive) | > 100 µM (inactive) | – | > 100 µM (inactive) | > 100 µM (inactive) | 56.8 µM (inactive) | 57.5 µM (inactive) | – | – | 55.7 µM (inactive) | – | 59.6 µM (inactive) | 50.9 µM (inactive) | 74.3 µM (inactive)
N#C[C@H](c1ccccn1)c1nc2ccccc2nc1Cl | > 100 µM (inactive) | > 100 µM (inactive) | > 100 µM (inactive) | > 100 µM (inactive) | > 100 | > 100 µM (inactive) | > 100 µM (inactive) | > 100 µM (inactive) | > 100 µM (inactive) | – | > 100 µM (inactive) | – | > 100 µM (inactive) | > 100 µM (inactive) | > 100 µM (inactive) | > 100 µM (inactive) | – | – | > 100 µM (inactive) | > 100 µM (inactive)
O=C1C2c3[nH]c4ccccc4c3C3CCSCC3C2C(=O)N1c1ccccc1 (configuration not stated) | – | > 100 µM (inactive) | > 100 µM (inactive) | > 100 µM (inactive) | > 100 | – | > 100 µM (inactive) | > 100 µM (inactive) | 25.8 µM (inactive) | 72.9 µM (inactive) | – | > 100 µM (inactive) | > 100 µM (inactive) | – | – | > 100 µM (inactive) | – | > 100 µM (inactive) | > 100 µM (inactive) | > 100 µM (inactive)
O=C(c1ccccc1)c1cc(Cl)ccc1NCn1nnc2ccccc21 | – | > 100 µM (inactive) | 76.4 µM (inactive) | 29 µM (inactive) | 42.8 | – | > 100 µM (inactive) | 41.6 µM (inactive) | 30.3 µM (inactive) | 34.6 µM (inactive) | 35.6 µM (inactive) | – | – | – | – | > 100 µM (inactive) | – | 73.3 µM (inactive) | 47.8 µM (inactive) | –
CCCC(=O)Nc1cc2c3c(c1)CCCN3CCC2 | > 10 µM (inactive) | > 10 µM (inactive) | > 10 µM (inactive) | – | > 10 | > 10 µM (inactive) | – | > 10 µM (inactive) | – | > 10 µM (inactive) | > 10 µM (inactive) | > 10 µM (inactive) | > 10 µM (inactive) | 6.01 µM (inactive) | > 10 µM (inactive) | > 10 µM (inactive) | > 10 µM (inactive) | > 10 µM (inactive) | > 10 µM (inactive) | > 10 µM (inactive)
CN(C)c1cccc2c1C(=O)C=CC21CCc2ccc(N(C)C)c3c(N(C)C)ccc1c23 (configuration not stated) | 56.8 µM (inactive) | 12.9 µM (inactive) | 12.2 µM (inactive) | – | – | 13.6 µM (inactive) | 20 µM (inactive) | 16.9 µM (inactive) | 7.38 µM (inactive) | 3.96 µM (inactive) | 12 µM (inactive) | 14.4 µM (inactive) | 16.3 µM (inactive) | 66.4 µM (inactive) | 17.4 µM (inactive) | 13.4 µM (inactive) | 5.26 µM (inactive) | 15.1 µM (inactive) | – | 11.5 µM (inactive)
C[N+](C)(C)/C=N\c1cccc2c1CCCC2 | > 100 µM (inactive) | > 100 µM (inactive) | > 100 µM (inactive) | > 100 µM (inactive) | > 100 | > 100 µM (inactive) | > 100 µM (inactive) | 21.5 µM (inactive) | > 100 µM (inactive) | 18 µM (inactive) | 16 µM (inactive) | > 100 µM (inactive) | 41.2 µM (inactive) | 69.3 µM (inactive) | > 100 µM (inactive) | 75.3 µM (inactive) | > 100 µM (inactive) | 55.3 µM (inactive) | – | > 100 µM (inactive)
CC(C)NC(=O)OCc1nnn2c1CCC2 | – | > 100 µM (inactive) | > 100 µM (inactive) | > 100 µM (inactive) | > 100 | – | > 100 µM (inactive) | – | > 100 µM (inactive) | > 100 µM (inactive) | > 100 µM (inactive) | – | > 100 µM (inactive) | – | – | > 100 µM (inactive) | – | > 100 µM (inactive) | > 100 µM (inactive) | > 100 µM (inactive)
O=S(O)CCCSSSCCCS(=O)O | – | > 100 µM (inactive) | > 100 µM (inactive) | > 100 µM (inactive) | – | – | > 100 µM (inactive) | – | > 100 µM (inactive) | > 100 µM (inactive) | > 100 µM (inactive) | > 100 µM (inactive) | – | – | – | – | – | > 100 µM (inactive) | > 100 µM (inactive) | > 100 µM (inactive)
C=C1CC(OC)(C(OC)C(=O)N[C@H]2OCO[C@H]3C2O[C@H](C[C@@H](COC)OC)C(C)(C)C3OC)O[C@H](C)[C@@H]1C (some centres not stated) | 2.78 µM (inactive) | 1.01 µM (active) | 0.746 µM (active) | 1.15 µM (inactive) | 0.8 | – | – | 0.111 µM (active) | 0.995 µM (active) | 0.815 µM (active) | – | – | 0.622 µM (active) | – | – | 1.17 µM (inactive) | – | 0.617 µM (active) | – | –
CC(=O)O[C@H]1CC[C@@]2(C)[C@H](CC[C@@H]3[C@@H]2CC[C@]2(C)[C@@H](c4ccc(=O)oc4)C[C@H]4O[C@]342)C1 | 0.518 µM (active) | 1.05 µM (active) | 0.327 µM (active) | 2.7 µM (inactive) | 1.08 | – | 0.646 µM (active) | 0.664 µM (active) | 0.147 µM (active) | 0.646 µM (active) | – | 0.348 µM (active) | 0.34 µM (active) | – | – | 1.08 µM (active) | – | 0.904 µM (active) | 0.327 µM (active) | 0.571 µM (active)
